Source: US20260373248A1, “DEGRADABLE PEPTOIDS” (Medici Therapeutics, Inc., priority 2023, published 2026)
Non-standard residues stand in square brackets, D forms with d. Residues, ends and D or L forms follow the SMILES beside them. *: point of attachment. N(3-lauroyloxypropyl)Gly = CCCCCCCCCCCC(=O)OCCCNCC(=O)O; N(2-decanoyloxyethyl)Gly = CCCCCCCCCC(=O)OCCNCC(=O)O; N(3-imidazol-1-ylpropyl)Gly = O=C(O)CNCCCn1ccnc1; Gly(N-3-morpholinopropyl) = O=C(O)CNCCCN1CCOCC1; N(2-ethylhexyl)Gly = CCCCC(CC)CNCC(=O)O; N(octyl)Gly = CCCCCCCCNCC(=O)O; NHexGly = CCCCCCNCC(=O)O; For = O=C*

Tests used:
luciferase = experiment: Luciferase expression after local (intramuscular or subcutaneous) administration of mRNA; type: in vivo; details: mRNA 0.01 mpk, 6 hours; for IM Flux: intramuscular; for SC Flux: subcutaneous
How it was run: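 Bioluminescence read 6 hours after fLuc mRNA dosing (peptoid Nutshells; 0.01 mpk S.C. or I.M., 0.1 mpk intratumoral) in female Balb/c mice aged 6-8 weeks. D-luciferin injected IP, whole-body imaging after 10 minutes, then organ imaging; total photon flux per region of interest.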

[1] = Delivery vehicle size and polydispersity by dynamic light scattering; type: physicochemical
How it was run: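 Dynamic light scattering in PBS gave size and polydispersity of peptoid LNPs. These were dialyzed overnight at 4 °C into tris-sucrose buffer pH 7.4 after microfluidic 1:3 volume mixing of mRNA in pH 5.0 citrate with ethanol lipids (peptoid:DSPC:cholesterol:DMG-PEG2000 20:1.79:7.16:1.84 w/w).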

[2] = Peptoid quantity remaining in liver by HPLC-TOF mass spectrometry; type: in vivo; details: liver homogenate
How it was run: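 Whole liver weighed; 20 mg tissue bead-homogenized in IPA/MeOH (8/2) with internal standard, centrifuged, supernatant run on BEH C8 HPLC-TOF MS. Peptoid concentration derived from linear calibration curve (0.2-50 μg/g) prepared in spiked untreated liver.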

firefly luciferase = experiment: In vivo firefly luciferase expression after intravenous injection of fLuc mRNA delivery vehicles (IVIS imaging); design: species or system female Balb/c mice; details: for Total Flux: mice, 2.5 ug fLuc mRNA intravenously, 6 hours post-injection; for Total Flux (luciferase expression): fLuc mRNA, intravenous, Balb/c mice
How it was run: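 Read-out is total photon flux per region of interest, from whole-body IVIS images taken 10 minutes after IP D-luciferin (30 mg/mL, 10 μL/g) and from excised organs. Female Balb/c mice aged 6-8 weeks received 2.5 ug fLuc mRNA Nutshells intravenously 6 hours before imaging.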

mRNA = mRNA encapsulation (modified Quant-iT RiboGreen assay); type: physicochemical; details: for mean percent encapsulation of RNA: RiboGreen, without vs with Triton X-100; for % Encapsulation: mRNA
How it was run: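 Encapsulated fraction was calculated by comparing RiboGreen signal (excitation 485 nm, emission 530 nm) of intact particles with that of particles lysed by a 10-min Triton X-100 treatment. Total mRNA concentration was taken from the lysed samples.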

hEPO = experiment: Quantification of hEPO in serum after IV injection of mRNA (Human EPO ELISA); type: in vivo; details: Balb/c mice, 2.5 μg mRNA IV, serum after 6 hours
How it was run: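 Balb/c mice received 2.5 μg mRNA encoding human EPO by IV injection; serum was collected after 6 hours. hEPO was measured by sandwich ELISA (biotin-conjugate, streptavidin-HRP, TMB, A450) against kit standards (mIU/mL) and an external standard (ng/mL), with values interpolated and corrected for dilution.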

[3] = DLS in PBS, peptoid:DSPC:Cholesterol:DMG-PEG2000 weight ratio 20:1.79:7.16:1.84, mRNA

Compound | PDI [1, 3] | Particle Size [1, 3] | % of injected dose remaining in liver [2] | mean percent encapsulation of RNA (mRNA) | Particle Size ([1]; formulation recipe D22) | % Encapsulation (mRNA; formulation recipe D22) | IM Flux (luciferase) | SC Flux (luciferase) | Total Flux (firefly luciferase) | hEPO (hEPO) | Total Flux (luciferase expression) (firefly luciferase; formulation recipe D22) | also measured
CCCCCCCCCCCC(=O)OCCCN(CC(=O)N(CC(=O)N(CC(=O)N(CCCOC(=O)CCCCCCCCCCC)CC(=O)N(CC(N)=O)CC(CC)CCCC)CC(CC)CCCC)CC(CC)CCCC)C(=O)CN(CC(CC)CCCC)C(=O)CN(C=O)CCCN1CCOCC1 (stereo not shown) [Compound 64] (For-[Gly(N-3-morpholinopropyl)][N(2-ethylhexyl)Gly][N(3-lauroyloxypropyl)Gly][N(2-ethylhexyl)Gly][N(2-ethylhexyl)Gly][N(3-lauroyloxypropyl)Gly][N(2-ethylhexyl)Gly]-NH2) | 0.096 | 77.8 nm | 5.30% | 67.3% | – | – | 1.42E+08 p/s | 1.33E+08 p/s | 6.54E+08 p/s | 87 ng/mL | – | –
CCCCCCCCCCCC(=O)OCCCN(CC(=O)N(CC(=O)N(CCCCCC)CC(=O)N(CCCOC(=O)CCCCCCCCCCC)CC(=O)N(CC(=O)N(CCCCCC)CC(N)=O)CC(CC)CCCC)CC(CC)CCCC)C(=O)CN(C=O)CCCN1CCOCC1 (stereo not shown) [Compound 70] (For-[Gly(N-3-morpholinopropyl)][N(3-lauroyloxypropyl)Gly][N(2-ethylhexyl)Gly][NHexGly][N(3-lauroyloxypropyl)Gly][N(2-ethylhexyl)Gly][NHexGly]-NH2) | 0.082 | 101.3 nm | 8.06% | 77.2% | – | – | 4.46E+06 p/s | 2.02E+08 p/s | 1.04E+09 p/s | 201 ng/mL | – | –
CCCCCCCCCCCC(=O)OCCCN(CC(=O)N(CC(=O)N(CCCCCC)CC(=O)N(CCCOC(=O)CCCCCCCCCCC)CC(=O)N(CC(=O)N(CCCCCC)CC(N)=O)CC(CC)CCCC)CC(CC)CCCC)C(=O)CNCCCn1ccnc1 (stereo not shown) [Compound 72] (H-[N(3-imidazol-1-ylpropyl)Gly][N(3-lauroyloxypropyl)Gly][N(2-ethylhexyl)Gly][NHexGly][N(3-lauroyloxypropyl)Gly][N(2-ethylhexyl)Gly][NHexGly]-NH2) | 0.139 | 106.8 nm | 11.32% | 89.2% | – | – | 9.25E+06 p/s | 3.73E+07 p/s | 1.71E+08 p/s | 36 ng/mL | – | –
CCCCCCCCCC(=O)OCCN(CC(=O)N(CCOC(=O)CCCCCCCCC)CC(=O)N(CC(=O)N(CCOC(=O)CCCCCCCCC)CC(=O)N(CCOC(=O)CCCCCCCCC)CC(=O)N(CC(N)=O)CC(CC)CCCC)CC(CC)CCCC)C(=O)CNCCCn1ccnc1 (stereo not shown) [Compound 79] (H-[N(3-imidazol-1-ylpropyl)Gly][N(2-decanoyloxyethyl)Gly][N(2-decanoyloxyethyl)Gly][N(2-ethylhexyl)Gly][N(2-decanoyloxyethyl)Gly][N(2-decanoyloxyethyl)Gly][N(2-ethylhexyl)Gly]-NH2) | 0.108 | 61.0 nm | 19.72% | 97.5% | – | – | 1.31E+08 p/s | 1.59E+08 p/s | 1.60E+09 p/s | 320 ng/mL | – | –
CCCCCCCCCCCC(=O)OCCCN(CC(=O)N(CC(=O)N(CCCN1CCOCC1)CC(=O)N(CC(=O)N(CCCOC(=O)CCCCCCCCCCC)CC(=O)N(CC(N)=O)CC(CC)CCCC)CC(CC)CCCC)CC(CC)CCCC)C(=O)CN(C=O)CC(CC)CCCC (stereo not shown) [Compound 80] (For-[N(2-ethylhexyl)Gly][N(3-lauroyloxypropyl)Gly][N(2-ethylhexyl)Gly][Gly(N-3-morpholinopropyl)][N(2-ethylhexyl)Gly][N(3-lauroyloxypropyl)Gly][N(2-ethylhexyl)Gly]-NH2) | 0.109 | 78.1 nm | 13.58% | 65.7% | 78.1 nm | 65.7% | 2.20E+08 p/s | 4.16E+08 p/s | 3.74E+09 p/s | 481 ng/mL | 3.74E+09 p/s | Particle Size ([1]; formulation recipe O1): 68.2 nm; Particle Size ([1]; formulation recipe O5): 68.5 nm; Total Flux (luciferase expression) (firefly luciferase; formulation recipe O1): 2.74E+09 p/s; Total Flux (luciferase expression) (firefly luciferase; formulation recipe O5): 2.71E+09 p/s; % Encapsulation (mRNA; formulation recipe O1): 80.5%; % Encapsulation (mRNA; formulation recipe O5): 82.6%

Continued, in another order:

PDI [1, 3] | Particle Size [1, 3] | % of injected dose remaining in liver [2] | mean percent encapsulation of RNA (mRNA) | Particle Size ([1]; formulation recipe D22) | % Encapsulation (mRNA; formulation recipe D22) | Compound | IM Flux (luciferase) | SC Flux (luciferase) | Total Flux (firefly luciferase) | hEPO (hEPO) | Total Flux (luciferase expression) (firefly luciferase; formulation recipe D22) | also measured
0.248 | 91.4 nm | 14.67% | 39.1% | – | – | CCCCCCCCCCCC(=O)OCCN(CC(=O)N(CCOC(=O)CCCCCCCCCCC)CC(=O)N(CC(=O)N(CCOC(=O)CCCCCCCCCCC)CC(=O)N(CCOC(=O)CCCCCCCCCCC)CC(=O)N(CC(N)=O)CC(CC)CCCC)CC(CC)CCCC)C(=O)CN(C=O)CCCN1CCOCC1 (stereo not shown) [Compound 65] | 8.99E+08 p/s | 2.00E+08 p/s | 8.68E+08 p/s | 77.7 ng/mL | – | –
0.151 | 87.1 nm | bdl | 67.6% | 87.1 nm | 67.6% | CCCCCCCCCCCC(=O)OCCCN(CC(=O)N(CC(N)=O)CC(CC)CCCC)C(=O)CN(CCCCCCCC)C(=O)CN(CC(CC)CCCC)C(=O)CN(CCCOC(=O)CCCCCCCCCCC)C(=O)CN(CCCCCCCC)C(=O)CN(C=O)CCCN1CCOCC1 (stereo not shown) [Compound 74] (For-[Gly(N-3-morpholinopropyl)][N(octyl)Gly][N(3-lauroyloxypropyl)Gly][N(2-ethylhexyl)Gly][N(octyl)Gly][N(3-lauroyloxypropyl)Gly][N(2-ethylhexyl)Gly]-NH2) | 4.87E+07 p/s | 2.11E+08 p/s | 1.96E+09 p/s | 354 ng/mL | 1.96E+09 p/s | Particle Size ([1]; formulation recipe O5): 70.1 nm; Particle Size ([1]; formulation recipe O8): 71.7 nm; Total Flux (luciferase expression) (firefly luciferase; formulation recipe O5): 1.92E+09 p/s; Total Flux (luciferase expression) (firefly luciferase; formulation recipe O8): 3.39E+09 p/s; % Encapsulation (mRNA; formulation recipe O5): 90.4%; % Encapsulation (mRNA; formulation recipe O8): 91.5%
0.095 | 75.4 nm | 7.34% | 56.4% | 75.4 nm | 56.4% | CCCCCCCCCC(=O)OCCN(CC(=O)N(CCOC(=O)CCCCCCCCC)CC(=O)N(CC(=O)N(CCOC(=O)CCCCCCCCC)CC(=O)N(CCOC(=O)CCCCCCCCC)CC(=O)N(CC(N)=O)CC(CC)CCCC)CC(CC)CCCC)C(=O)CN(C=O)CCCN1CCOCC1 (stereo not shown) [Compound 76] (For-[Gly(N-3-morpholinopropyl)][N(2-decanoyloxyethyl)Gly][N(2-decanoyloxyethyl)Gly][N(2-ethylhexyl)Gly][N(2-decanoyloxyethyl)Gly][N(2-decanoyloxyethyl)Gly][N(2-ethylhexyl)Gly]-NH2) | 1.70E+08 p/s | 8.95E+07 p/s | 5.54E+09 p/s | 2140 ng/mL | 5.54E+09 p/s | Particle Size ([1]; formulation recipe R1): 66.0 nm; Particle Size ([1]; formulation recipe R5): 67.2 nm; Particle Size ([1]; formulation recipe R6): 74.4 nm; Particle Size ([1]; formulation recipe R7): 75.3 nm; Total Flux (luciferase expression) (firefly luciferase; formulation recipe R1): 5.94E+08 p/s; Total Flux (luciferase expression) (firefly luciferase; formulation recipe R5): 1.00E+09 p/s; Total Flux (luciferase expression) (firefly luciferase; formulation recipe R6): 2.28E+09 p/s; Total Flux (luciferase expression) (firefly luciferase; formulation recipe R7): 4.00E+09 p/s; % Encapsulation (mRNA; formulation recipe R1): 82.7%; % Encapsulation (mRNA; formulation recipe R5): 88.1%; % Encapsulation (mRNA; formulation recipe R6): 87.6%; % Encapsulation (mRNA; formulation recipe R7): 79.9%
